Laboratory results as given in ChEMBL document CHEMBL4052754, “Targeting progesterone metabolism in breast cancer with l-proline derived new 14-azasteroids” (Bioorg Med Chem, 2017).
pIC50: −log10 of the molar value. Activity calls are given as the source filed them. The rule behind the calls is not given here.

What was measured:
MCF7 [1] = experiment: Induction of mitochondrial membrane potential loss in human MCF7 cells assessed as ratio of green to red fluorescence at 1 uM after 24 hrs by JC1 staining based flow cytometric analysis (reference value: 1.41); format: functional
MDA-MB-231 [2] = experiment: Induction of mitochondrial membrane potential loss in human MDA-MB-231 cells assessed as ratio of green to red fluorescence at 1 uM after 24 hrs by JC1 staining based flow cytometric analysis (reference value: 4.55); format: functional
MCF7 [3] = experiment: Anti-invasive activity against human MCF7 cells assessed as inhibition of TGF-beta induced cell invasion at 0.5 to 1 uM after 24 hrs by crystal violet staining based transwell assay; format: functional
MDA-MB-231 [4] = experiment: Cell cycle arrest in human MDA-MB-231 cells assessed as increase in sub-G1 population after 24 hrs by flow cytometric analysis; format: functional, cell-based
MCF7 [5] = experiment: Decrease in SRD5A1 level in human MCF7 cells at 1 to 10 uM after 24 hrs by ELISA; format: functional, cell-based
MCF7 [6] = experiment: Decrease in progesterone level in human MCF7 cells at 1 to 10 uM after 24 hrs by ELISA; format: functional, cell-based
MCF7 [7] = experiment: Induction of mitochondrial membrane potential loss in human MCF7 cells assessed as ratio of green to red fluorescence at 5 uM after 24 hrs by JC1 staining based flow cytometric analysis (reference value: 1.41); format: functional
MDA-MB-231 [8] = experiment: Cell cycle arrest in human MDA-MB-231 cells assessed as increase in G2/M-phase population after 24 hrs by flow cytometric analysis; format: functional, cell-based
MCF7 [9] = experiment: Decrease in 5alpha-DHP level in human MCF7 cells after 24 hrs by ELISA; format: functional, cell-based
MDA-MB-231 [10] = experiment: Anti-migratory activity against human MDA-MB-231 cells assessed as reduction in cell migration towards wound area at 0.1 uM after 24 hrs by phase contrast microscopic analysis; format: functional, cell-based
MCF7 [11] = experiment: Induction of mitochondrial membrane potential loss in human MCF7 cells after 24 hrs by JC1 staining based flow cytometric analysis; format: functional, cell-based
MDA-MB-231 [12] = experiment: Anti-migratory activity against human MDA-MB-231 cells assessed as reduction in cell migration towards wound area at 50 uM after 24 hrs by phase contrast microscopic analysis relative to control; format: functional; design: scale not given: the % may be the effect or the level left
MDA-MB-231 [13] = experiment: Induction of mitochondrial membrane potential loss in human MDA-MB-231 cells assessed as ratio of green to red fluorescence at 5 uM after 24 hrs by JC1 staining based flow cytometric analysis (reference value: 4.55); format: functional
MCF7 [14] = experiment: Cell cycle arrest in human MCF7 cells assessed as increase in sub-G1 population at 0.5 to 10 uM after 24 hrs by propidium iodide staining based flow cytometric analysis; format: functional
MDA-MB-231 [15] = experiment: Cell cycle arrest in human MDA-MB-231 cells assessed as decrease in S phase population after 24 hrs by flow cytometric analysis; format: functional, cell-based
MCF7 [16] = experiment: Cell cycle arrest in human MCF7 cells assessed as increase in G2/M population at 0.5 to 10 uM after 24 hrs by propidium iodide staining based flow cytometric analysis; format: functional
MDA-MB-231 [17] = experiment: Induction of mitochondrial membrane potential loss in human MDA-MB-231 cells after 24 hrs by JC1 staining based flow cytometric analysis; format: functional, cell-based
MCF7 [18] = experiment: Cytotoxicity against human MCF7 cells after 24 hrs by MTT assay; format: functional, cell-based; conditions: MCF7, 24 h
MDA-MB-231 [19] = experiment: Cytotoxicity against human MDA-MB-231 cells after 24 hrs by MTT assay; format: functional, cell-based; conditions: MDA-MB-231, 24 h
MCF7 [20] = experiment: Induction of apoptosis in human MCF7 cells after 24 hrs by Annexin-V-FITC/propidium iodide staining based flow cytometric analysis; format: functional, cell-based
MCF7 [21] = experiment: Induction of mitochondrial membrane potential loss in human MCF7 cells assessed as ratio of green to red fluorescence at 0.5 uM after 24 hrs by JC1 staining based flow cytometric analysis (reference value: 1.41); format: functional
MDA-MB-231 [22] = experiment: Anti-migratory activity against human MDA-MB-231 cells assessed as reduction in cell migration towards wound area at 0.5 to 10 uM after 24 hrs by phase contrast microscopic analysis; format: functional, cell-based
MDA-MB-231 [23] = experiment: Induction of apoptosis in human MDA-MB-231 cells after 24 hrs by Annexin-V-FITC/propidium iodide staining based flow cytometric analysis; format: functional, cell-based
HEK293 = experiment: Cytotoxicity against HEK293 cells after 24 hrs by MTT assay; format: cell-based; conditions: Homo sapiens, HEK293, 24 h
MDA-MB-231 [24] = experiment: Induction of mitochondrial membrane potential loss in human MDA-MB-231 cells assessed as ratio of green to red fluorescence at 0.5 uM after 24 hrs by JC1 staining based flow cytometric analysis (reference value: 4.55); format: functional
MCF7 [25] = experiment: Decrease in 5alpha-DHP level in human MCF7 cells at 1 to 10 uM after 24 hrs by ELISA; format: functional, cell-based

Structure (SMILES): C[C@]12CC=C3c4ccccc4CC[C@@H]3N1CCC2
- Ratio (MCF7 [1]): 4.45
- Ratio (MDA-MB-231 [2]): 9.35
- inhibition (MCF7 [3]): Active
- Activity (MDA-MB-231 [4]): Dose-dependent effect
- Activity (MCF7 [5]): Active
- Activity (MCF7 [6]): Active
- Ratio (MCF7 [7]): 8.29
- Activity (MDA-MB-231 [8]): Dose-dependent effect
- Activity (MCF7 [9]): Dose-dependent effect
- Activity (MDA-MB-231 [10]): inactive
- Activity (MCF7 [11]): Dose-dependent effect
- Activity (MDA-MB-231 [12]): 100%
- Ratio (MDA-MB-231 [13]): 9.045
- Activity (MCF7 [14]): Active
- Activity (MDA-MB-231 [15]): Dose-dependent effect
- Activity (MCF7 [16]): Active
- Activity (MDA-MB-231 [17]): Dose-dependent effect
- pIC50 (MCF7 [18]): 6.00
- pIC50 (MDA-MB-231 [19]): 5.85
- Activity (MCF7 [20]): Dose-dependent effect
- Ratio (MCF7 [21]): 2.51
- Activity (MDA-MB-231 [22]): Active
- Activity (MDA-MB-231 [23]): Dose-dependent effect
- pIC50 (HEK293): < 4.30
- Ratio (MDA-MB-231 [24]): 7.8

Structure (SMILES): COc1ccc2c(c1)C1=CC[C@@H]3C[C@@H](OCc4ccccc4)CN3[C@H]1CC2
- pIC50 (MCF7 [18]): < 4.30
- pIC50 (MDA-MB-231 [19]): 5.01
- pIC50 (HEK293): < 4.30

Structure (SMILES): C[C@]12CC=C3c4ccccc4CC[C@H]3N1CCC2
- pIC50 (MCF7 [18]): 5.37
- pIC50 (MDA-MB-231 [19]): 4.47
- pIC50 (HEK293): < 4.30

Structure (SMILES): C1=C2c3ccccc3CC[C@H]2N2C[C@H](OCc3ccccc3)C[C@H]2C1
- pIC50 (MCF7 [18]): 5.27
- pIC50 (MDA-MB-231 [19]): 4.45
- pIC50 (HEK293): < 4.30

Structure (SMILES): C1=C2c3ccccc3CC[C@@H]2N2C[C@H](OCc3ccccc3)C[C@H]2C1
- pIC50 (MCF7 [18]): 4.39
- pIC50 (MDA-MB-231 [19]): 4.34
- pIC50 (HEK293): < 4.30

Structure (SMILES): C1=C2c3ccccc3CC[C@@H]2N2CCC[C@H]2C1
- pIC50 (MCF7 [18]): < 4.30
- pIC50 (MDA-MB-231 [19]): 4.33
- pIC50 (HEK293): < 4.30

Structure (SMILES): CC(C)(C)NC(=O)[C@H]1CC[C@H]2[C@@H]3CC[C@H]4NC(=O)C=C[C@]4(C)[C@H]3CC[C@]12C [FINASTERIDE]
- Activity (MCF7 [5]): inactive
- Activity (MCF7 [6]): Active
- Activity (MCF7 [25]): inactive
- pIC50 (MCF7 [18]): 4.36
- pIC50 (MDA-MB-231 [19]): < 4.30
- pIC50 (HEK293): < 4.30

Structure (SMILES): COc1ccc2c(c1)C1=CC[C@@H]3C[C@@H](OCc4ccccc4)CN3[C@@H]1CC2
- pIC50 (MCF7 [18]): < 4.30
- pIC50 (MDA-MB-231 [19]): 4.37
- pIC50 (HEK293): < 4.30

Structure (SMILES): C1=C2c3ccccc3CC[C@H]2N2CCC[C@H]2C1
- pIC50 (MCF7 [18]): 4.46
- pIC50 (MDA-MB-231 [19]): < 4.30
- pIC50 (HEK293): < 4.30
